For this assay, the target named is Mcl-1 protein (UniProtKB Q07820) (Homo sapiens (Human), UniProt Q07820). Briefly: Inhibition of Mcl-1 by the fluorescence polarisation assay (Example A, Method A). Conditions: fluorescence polarization assay. Type of assay: binding. In a few lines:
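Protein (5 nM) and fluorescein-tagged peptide tracer (1 nM) incubated with 11-point compound series for 2 h at room temperature in HEPES/NaCl/Tween 20 buffer, pH 7.4, 5% DMSO. Displacement read as decrease in polarisation; IC50 fitted by 4-parameter logistic, converted to Ki (cKi or eKi).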
In general terms: Polarisation of emitted light reports the rotation of a fluorescent probe.

As a reminder, the Ki is a measure of affinity in units of concentration, obtained from inhibition or displacement.

Chain of Mcl-1 protein (Q07820 whole entry): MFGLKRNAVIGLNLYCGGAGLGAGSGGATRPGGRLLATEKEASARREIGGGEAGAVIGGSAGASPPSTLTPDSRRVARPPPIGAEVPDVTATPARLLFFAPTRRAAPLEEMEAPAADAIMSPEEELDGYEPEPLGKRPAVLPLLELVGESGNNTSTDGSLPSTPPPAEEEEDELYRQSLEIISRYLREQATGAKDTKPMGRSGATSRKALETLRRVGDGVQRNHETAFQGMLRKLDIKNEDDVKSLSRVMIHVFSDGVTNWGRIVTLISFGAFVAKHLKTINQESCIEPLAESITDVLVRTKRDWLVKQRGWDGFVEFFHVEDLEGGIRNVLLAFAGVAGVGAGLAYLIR

For the compound `COc1cccc(N2C(=O)c3ccccc3[C@]23CC[C@@](Nc2cccc(Br)c2)(C(=O)O)CC3)c1` [Example 30, (1s,4s)-4-(3-bromoanilino)-2′-(3-methoxyphenyl)-3′-oxo-2′,3′-dihydrospiro[cyclohexane-1,1′-isoindole]-4-carboxylic acid], the Ki came to 9.25 µM. With `COc1cccc(N2Cc3ccccc3[C@]23CC[C@](Nc2cccc(Br)c2)(C(=O)O)CC3)c1` [Example 31, (1r,4r)-4-(3-bromoanilino)-2′-(3-methoxyphenyl)-2′,3′-dihydrospiro[cyclohexane-1,1′-isoindole]-4-carboxylic acid] the figure was 36.3 µM. With `COc1cccc(N2Cc3ccccc3[C@]23CC[C@@](Nc2cccc(Br)c2)(C(=O)O)CC3)c1` [Example 32, (1s,4s)-4-(3-bromoanilino)-2′-(3-methoxyphenyl)-2′,3′-dihydrospiro[cyclohexane-1,1′-isoindole]-4-carboxylic acid] the figure was 3.21 µM.

As for `COc1ccc(N2C(=O)c3ccccc3[C@]23CC[C@@](Nc2cccc(Br)c2)(C(=O)O)CC3)cc1` [Example 33, (1s,4s)-4-(3-bromoanilino)-2′-(4-methoxyphenyl)-3′-oxo-2′,3′-dihydrospiro[cyclohexane-1,1′-isoindole]-4-carboxylic acid], the Ki is 12.1 µM.

As for `Cc1cnccc1OCCCN1Cc2ccccc2[C@]12CC[C@@](Nc1cccc(Cl)c1)(C(=O)O)CC2` [Example 37, (1s,4s)-4-(3-chloroanilino)-2′-{3-[(3-methylpyridin-4-yl)oxy]propyl}-2′,3′-dihydrospiro[cyclohexane-1,1′-isoindole]-4-carboxylic acid], the Ki was 0.295 µM.

Turning to `COc1ccc2c(c1)[C@]1(CC2)CC[C@@](Nc2cccc(Br)c2)(C(=O)O)CC1` [Example 62, (1s,4r)-4-(3-bromoanilino)-6′-methoxy-2′,3′-dihydrospiro[cyclohexane-1,1′-indene]-4-carboxylic acid], the Ki amounted to 43.5 µM.

`O=C(O)[C@]1(Nc2cccc(Br)c2)CC[C@@]2(CCc3ccc(O)cc32)CC1` [Example 63, (1r,4s)-4-(3-bromoanilino)-6′-hydroxy-2′,3′-dihydrospiro[cyclohexane-1,1′-indene]-4-carboxylic acid]: the Ki was found to be 0.24 µM. With `O=C(O)[C@]1(Nc2cccc(Cl)c2)CC[C@@]2(C=Cc3ccccc32)CC1` [Example 64, (1r,4r)-4-(3-chloroanilino)spiro[cyclohexane-1,1′-indene]-4-carboxylic acid] the figure was 0.735 µM; with `O=C(O)[C@]1(Nc2cccc(Cl)c2)CC[C@]2(C=Cc3ccccc32)CC1` [Example 65, (1s,4s)-4-(3-chloroanilino)spiro[cyclohexane-1,1′-indene]-4-carboxylic acid], 4.99 µM. With `COCCOc1ccc2c(c1)[C@]1(CC2)CC[C@](Nc2cccc(Br)c2)(C(=O)O)CC1` [Example 67, (1r,4s)-4-(3-bromoanilino)-6′-(2-methoxyethoxy)-2′,3′-dihydrospiro[cyclohexane-1,1′-indene]-4-carboxylic acid] the figure was 0.101 µM. With `C=CCOc1ccc2c(c1)[C@]1(CC2)CC[C@](Nc2cccc(Br)c2)(C(=O)O)CC1` [Example 68, (1r,4s)-4-(3-bromoanilino)-6′-[(prop-2-en-1-yl)oxy]-2′,3′-dihydrospiro[cyclohexane-1,1′-indene]-4-carboxylic acid] the figure was 0.302 µM; with `O=C(O)[C@]1(Nc2cccc(Cl)c2)CC[C@@]2(CCc3ccccc32)CC1` [Example 69, (1r,4s)-4-(3-chloroanilino)-2′,3′-dihydrospiro[cyclohexane-1,1′-indene]-4-carboxylic acid], 0.706 µM. `O=C(O)[C@]1(Nc2cccc(Cl)c2)CC[C@@]2(C=Cc3ncccc32)CC1` [Example 70, (1r,4r)-4-(3-chloroanilino)spiro[cyclohexane-1,5′-cyclopenta[b]pyridine]-4-carboxylic acid]: the Ki was determined as 25.9 µM. In the case of `CN(c1cccc(Cl)c1)[C@]1(C(=O)O)CC[C@]2(C=Cc3ccccc32)CC1` [Example 73, (1r,4r)-4-[(3-chlorophenyl)(methyl)amino]spiro[cyclohexane-1,1′-indene]-4-carboxylic acid], the Ki was found to be 60.5 µM.

On to `O=C(O)[C@]1(Nc2cccc(Cl)c2)CC[C@@]2(CC1)C(Br)=Cc1ccccc12` [Example 74, (1r,4r)-2′-bromo-4-(3-chloroanilino)spiro[cyclohexane-1,1′-indene]-4-carboxylic acid], for which the Ki came out at 23.1 µM. With `O=C(O)[C@]1(Nc2cccc(Cl)c2)CC[C@]2(CC1)C(I)=Cc1ccccc12` [Example 76, (1s,4s)-4-(3-chloroanilino)-2′-iodospiro[cyclohexane-1,1′-indene]-4-carboxylic acid] the figure was 0.284 µM; with `O=C(O)[C@]1(Nc2cccc(Br)c2)CC[C@]2(CC1)C(I)=Cc1ccccc12` [Example 77, (1s,4s)-4-(3-bromoanilino)-2′-iodospiro[cyclohexane-1,1′-indene]-4-carboxylic acid], 0.227 µM; with `O=C(O)[C@]1(Nc2cccc(Br)c2)CC[C@]2(CC1)C(Br)=Cc1ccccc12` [Example 78, (1s,4s)-2′-bromo-4-(3-bromoanilino)spiro[cyclohexane-1,1′-indene]-4-carboxylic acid], 0.0876 µM. For the compound `O=C(O)[C@]1(Nc2cncc(Br)c2)CC[C@]2(CC1)C(Br)=Cc1ccccc12` [Example 79, (1s,4s)-2′-bromo-4-[(5-bromopyridin-3-yl)amino]spiro[cyclohexane-1,1′-indene]-4-carboxylic acid], the Ki worked out at 0.571 µM. As for `COCCOc1cccc(N[C@]2(C(=O)O)CC[C@@]3(CC2)C(Br)=Cc2ccccc23)n1` [Example 80, (1s,4s)-2′-bromo-4-{[6-(2-methoxyethoxy)pyridin-2-yl]amino}spiro[cyclohexane-1,1′-indene]-4-carboxylic acid], the Ki was found to be 11.8 µM. As for `COCCOc1cc(N[C@]2(C(=O)O)CC[C@@]3(CC2)C(Br)=Cc2ccccc23)ccn1` [Example 81, (1s,4s)-2′-bromo-4-{[2-(2-methoxyethoxy)pyridin-4-yl]amino}spiro[cyclohexane-1,1′-indene]-4-carboxylic acid], the Ki is 15.5 µM.

For `O=C(O)[C@]1(Nc2cccc(C(F)F)c2)CC[C@]2(CC1)C(Br)=Cc1ccccc12` [Example 83, (1s,4s)-2′-bromo-4-[3-(difluoromethyl)anilino]spiro[cyclohexane-1,1′-indene]-4-carboxylic acid], the Ki is 1.36 µM. Regarding `O=C(O)[C@]1(Nc2cccc(O)c2)CC[C@]2(CC1)C(Br)=Cc1ccccc12` [Example 84, (1s,4s)-2′-bromo-4-(3-hydroxyanilino)spiro[cyclohexane-1,1′-indene]-4-carboxylic acid], the Ki turned out to be 7.22 µM. With `COc1cccc(N[C@]2(C(=O)O)CC[C@@]3(CC2)C(Br)=Cc2ccccc23)c1` [Example 86, (1s,4s)-2′-bromo-4-(3-methoxyanilino)spiro[cyclohexane-1,1′-indene]-4-carboxylic acid] the figure was 4.1 µM; with `O=C(O)[C@]1(Nc2cccnc2)CC[C@]2(CC1)C(Br)=Cc1ccccc12` [Example 87, (1s,4s)-2′-bromo-4-[(pyridin-3-yl)amino]spiro[cyclohexane-1,1′-indene]-4-carboxylic acid], 4.38 µM. With `COc1ccc2c(c1)[C@]1(CC[C@@](Nc3cccc(Cl)c3)(C(=O)O)CC1)C1(CCCC1)C2` [Example 89, (1r,4r)-4-(3-chloroanilino)-6′-methoxy-3′H-dispiro[cyclohexane-1,1′-indene-2′,1″-cyclopentane]-4-carboxylic acid] the figure was 2.12 µM. With `O=C(O)[C@]1(Nc2cccc(Cl)c2)CC[C@]2(CC1)C(C1CC1)=Cc1ccccc12` [Example 90, (1r,4r)-4-(3-chloroanilino)-2′-cyclopropylspiro[cyclohexane-1,1′-indene]-4-carboxylic acid] the figure was 2.15 µM. Regarding `O=C(O)[C@]1(Nc2cccc(Cl)c2)CC[C@]2(CC1)C(=C1CCCC1)Cc1ccccc12` [Example 93, (1r,4r)-4-(3-chloroanilino)-2′-cyclopentylidene-2′,3′-dihydrospiro[cyclohexane-1,1′-indene]-4-carboxylic acid], the Ki was determined as 7.31 µM. Turning to `COc1ccc2c(c1)[C@]1(CC[C@](Nc3cccc(Br)c3)(C(=O)O)CC1)C1(CCCC1)C2` [Example 94, (1s,4s)-4-(3-bromoanilino)-6′-methoxy-3′H-dispiro[cyclohexane-1,1′-indene-2′,1″-cyclopentane]-4-carboxylic acid], the Ki was 129 µM. Turning to `COc1ccc2c(c1)[C@]1(CC[C@@](Nc3cccc(Br)c3)(C(=O)O)CC1)C1(CCCC1)C2` [Example 95, (1r,4r)-4-(3-bromoanilino)-6′-methoxy-3′H-dispiro[cyclohexane-1,1′-indene-2′,1″-cyclopentane]-4-carboxylic acid], the Ki turned out to be 1.19 µM. With `O=C(O)[C@]1(Nc2cccc(Cl)c2)CC[C@]2(CC1)C(C1CCC1)=Cc1ccccc12` [Example 96, (1r,4r)-4-(3-chloroanilino)-2′-cyclobutylspiro[cyclohexane-1,1′-indene]-4-carboxylic acid] the figure was 4.5 µM.

Regarding `O=C(O)[C@]1(Nc2cccc(Cl)c2)CC[C@]2(CC1)C(C1CC(OCc3ccccc3)C1)=Cc1ccccc12` (stereo partly drawn) [Example 97, (1r,4r)-2′-[3-(benzyloxy)cyclobutyl]-4-(3-chloroanilino)spiro[cyclohexane-1,1′-indene]-4-carboxylic acid], the Ki is 0.578 µM. With `O=C(O)[C@]1(Nc2cccc(Cl)c2)CC[C@]2(CC1)C(C1CN(Cc3ccncc3)C1)=Cc1ccccc12` [Example 98, (1r,4r)-4-(3-chloroanilino)-2′-{1-[(pyridin-4-yl)methyl]azetidin-3-yl}spiro[cyclohexane-1,1′-indene]-4-carboxylic acid] the figure was 10.4 µM.

For the origin of these results see patent US20240150293A1, “SPIROCYCLOHEXANE DERIVATIVES, PHARMACEUTICAL COMPOSITIONS CONTAINING THEM AND THEIR USES AS ANTI-APOPTOTIC INHIBITORS” (LES LABORATOIRES SERVIER, priority 2021, published 2024).
